Laboratory results taken from patent publication US20230337677A1, “ARYL AND PYRIDYL AMIDE PESTICIDES AND COMPOSITIONS THEREOF” (University of Florida Research Foundation, Incorporated, priority 2019, published 2023).

Legend:
[1] = system: Anopheles gambiae Akron kdr (Akdr) strain, resistant to pyrethroids; assay: Topical toxicity (24 hour mortality), An. gambiae Akdr; type: in vivo; conditions: for An. gambiae RR (resistance ratio): 24 h LD50 resistant strain (AKDR)/24 h LD50 susceptible strain (G3); for An. gambiae AKDR LD50: topical application, 24 h mortality, female adults, pyrethroid-resistant Akdr strain
Description: (§1) The Aedes aegypti strains Orlando (sensitive) as well as the Puerto Rico (PR, resistant to permethrin) were used. The Anopheles gambiae (G3 sensitive strain, as well as Akron kdr (Akdr) strain, resistant to pyrethroids were also assessed. The larvae were provided by the USDA, Gainesville Fl, and raised in a pan with tap water maintained at 28° C. Larvae were fed a ground liver and yeast mixture, and pupae were placed in emergence cages. Adults were held at 28° C. and provided with cotton balls soaked in 10% sugar water for rearing and for all bioassays.
(§2) Female adults from 3 to 6 days were used for the experiments. The drug was dissolved in ethanol and then applied with a micro-applicator on the thorax, between the legs: 200 nL of drug per female mosquito, with different concentrations of the drug; 10 mosquitos were treated together per concentration per replicate, and put together in a small container with free access to sweet water. Mortality, i.e. no visible movement, was assessed 24 hours after treatment. Every compound was assessed on at least 3 different cohorts of mosquitoes, and the LD50 values and slopes were determined with Probit analysis, corrected with Abbott's formula.

[2] = system: Aedes aegypti strain Puerto Rico (PR, resistant to permethrin); assay: Topical toxicity (24 hour mortality), Ae. aegypti Puerto Rico; type: in vivo; conditions: for Ae. aegypti RR (resistance ratio): 24 h LD50 resistant strain (PR)/24 h LD50 susceptible strain (OR); for Ae. aegypti PR LD50: topical application, 24 h mortality, female adults, permethrin-resistant Puerto Rico strain
Description: as §1, §2

[3] = system: Anopheles gambiae G3 sensitive strain; assay: Topical toxicity (24 hour mortality), An. gambiae G3; type: in vivo; conditions: topical application, 24 h mortality, female adults, susceptible strain G3
Description: as §1, §2

[4] = system: Aedes aegypti strain Orlando (sensitive); assay: Topical toxicity (24 hour mortality), Ae. aegypti Orlando; type: in vivo; conditions: topical application, 24 h mortality, female adults, susceptible Orlando strain
Description: as §1, §2

[5] = system: Aedes aegypti mosquitoes, insecticide-susceptible Orlando strain; assay: whole plant or invertebrate; conditions: 24 h; for mortality at 100 µg/cm2: read-out: 24 h % Mortality, 100 μg/cm^2
[6] = system: Aedes aegypti mosquitoes, insecticide-susceptible Orlando strain; conditions: 24 h; LC50 (OR)
[7] = system: Aedes aegypti mosquitoes, insecticide-susceptible Orlando strain; type: in vivo; conditions: for 1 h Repellency EC50, μg/cm^2: (OR); for 1 h % Repellency, 100 μg/cm^2: screened at 100 μg/cm^2, strain not given; for vapor repellency / mortality, statement in words (Example 8): structure-activity analysis of Table 2
How it was run: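 Sixteen female mosquitoes per glass tube facing netting-shielded filter paper treated with acetone solutions (30-0.01 μg/ml; screen at 100 μg/cm^2), no contact. Proportion on treated side scored up to 60 min, then flight-out checked 30 min; mortality after 24 hr constant exposure.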

[8] = system: Aedes aegypti and Anopheles gambiae female adults; assay: Analysis of topical toxicity (statements in words, species not given); type: in vivo; conditions: structure-activity analysis of Table 4
Description: as §1
as §2, with “formula. […]” for “formula.”

Row | Structure (SMILES) | An. gambiae RR (resistance ratio) [1] | An. gambiae AKDR LD50 [1] [ng/mg] | An. gambiae G3 LD50 [3] [ng/mg] | Ae. aegypti OR LD50 [4] [ng/mg] | mortality at 100 µg/cm2 [5] [%] | 24 h LC50, μg/cm^2 [6] [μg/cm^2] | 1 h % Repellency, 100 μg/cm^2 ([7]; 1 h) [%] | further results
1 | O=C(Nc1c(F)c(F)nc(F)c1F)C(F)(F)C(F)(F)C(F)(F)C(F)(F)C(F)(F)F [GMR057] | 0.6 | 15.7 | 28.4 | 20 |  |  |  | Ae. aegypti RR (resistance ratio) [2]: 0.4; Ae. aegypti PR LD50 [2]: 8.90 ng/mg
2 | O=C(CCl)Nc1ccccc1C(F)(F)F [MTFI-2-1A] |  |  |  |  | 100 | 14 | 94 | 1 h Repellency EC50, μg/cm^2 ([7]; 1 h): 14 μg/cm^2
3 | O=C(Nc1cc(Cl)nc(Cl)c1)C(F)F [GMR028] | 0.7 | 28.2 | 43.1 | 266 | 59 |  | 12 | Ae. aegypti RR (resistance ratio) [2]: 3.2; Ae. aegypti PR LD50 [2]: 854 ng/mg
4 | N#CC(F)(F)C(=O)Nc1cc(F)c(F)c(F)c1 [GMR102] |  | >100 | >100 | 2164 | 22 |  | 74 | 1 h Repellency EC50, μg/cm^2 ([7]; 1 h): 28 μg/cm^2; vapor repellency / mortality, statement in words (Example 8) [7]: moderate repellency and toxicity
5 | O=C(NCc1cc(Cl)nc(Cl)c1)C(F)(F)C(F)(F)C(F)(F)F [GMR107] |  |  |  | 2173 | 0 |  | 50 | 
6 | O=C(Nc1cc(Br)nc(Br)c1)C(F)(F)C(F)(F)C(F)(F)C(F)(F)C(F)(F)F [GMR056] | 0.4 | 3.2 | 8.6 | 15 |  |  |  | Ae. aegypti RR (resistance ratio) [2]: 0.8; Ae. aegypti PR LD50 [2]: 12.10 ng/mg
7 | O/N=C(\Nc1cc(Cl)nc(Cl)c1)C(F)(F)C(F)(F)C(F)(F)F [GMR104] |  |  | >100 | 393 | 0 |  | 12 | 
8 | O=C(Nc1cc(Cl)cc(Cl)c1)C(F)(F)C(F)(F)OC(F)(F)F [GMR099] |  | >1000 | >1000 | 3279 | 81 |  | 74 | 
9 | CNC(=O)Oc1ccccc1OC(C)C [Propoxur] | 63 | 201 | 3.2 | 3.0 |  |  |  | Ae. aegypti RR (resistance ratio) [2]: 0.0
10 | O=C(OCc1c(F)c(F)cc(F)c1F)C(F)(F)C(F)(F)C(F)(F)F [GMR090] |  | >100 | >100 | >1000 | 9 |  | −12 | 
11 | CC(C)(C)OC(=O)N(C(=O)C(F)(F)C(F)(F)F)c1c(Cl)cc(C(F)(F)F)cc1Cl [GMR150] |  |  |  | 629 | 100 | 12 |  | knockdown in 1 hr repellency test (XXkd = number of insects incapacitated out of 16 females) ([7]; 100 μg/cm^2, 1 h, out of 16 females): 11
12 | O=C(Nc1c(Cl)cc(C(F)(F)F)cc1Cl)C(F)(F)F [GMR149] |  |  |  | 251 | 81 |  | 44 | 
13 | O=C(Nc1ccnc(Br)c1)C(F)(F)C(F)(F)C(F)(F)C(F)(F)C(F)(F)F [GMR069] |  | 3425 |  | 2261 | 13 |  | −12 | 
14 | CC(C)(C)OC(=O)N(C(=O)C(F)(F)F)c1c(Cl)cc(C(F)(F)F)cc1Cl [GMR151] |  |  |  | >5000 | 0 |  | 32 | 
15 | O=C(Nc1cc(C(F)(F)F)ccn1)C(F)(F)C(F)(F)C(F)(F)F [GMR085] |  | >50 | >100 | >6000 | 13 |  | 70 | 1 h Repellency EC50, μg/cm^2 ([7]; 1 h): 49 μg/cm^2
16 | CC(C(=O)Nc1cc(F)c(F)c(F)c1)(C(F)(F)F)C(F)(F)F [GMR139] |  |  |  |  | 100 | 16.6 | 24 | 1 h Repellency EC50, μg/cm^2 ([7]; 1 h): 6.9 μg/cm^2; vapor repellency / mortality, statement in words (Example 8) [7]: reduced repellency
17 | O=C(Nc1cc(Cl)nc(Cl)c1)C(F)(F)C(F)(F)F [GMR030] | 1.5 | 14.2 | 9.6 | 49 | 85 | 35 | 28 | Ae. aegypti RR (resistance ratio) [2]: 1.0; Ae. aegypti PR LD50 [2]: 50 ng/mg
18 | CCC(=O)N(C(=O)CC)c1cccc(OC(F)(F)F)c1 [GMR161] |  |  |  |  | 72 | 52 | 74 | 1 h Repellency EC50, μg/cm^2 ([7]; 1 h): 36 μg/cm^2
19 | O=C(Nc1cc(Cl)nc(Cl)c1)C(F)(F)F [GMR029] | 1.6 | 45.3 | 27.9 | 190 | 24 | 181 | 42 | Ae. aegypti RR (resistance ratio) [2]: 1.3; Ae. aegypti PR LD50 [2]: 238 ng/mg
20 | O=C(Nc1cc(Cl)nc(Cl)c1)C(F)(F)Sc1ccc(F)cc1 [GMR147] |  |  |  | 1983 |  |  |  | topical toxicity, statement in words (Example 10) [8]: reduction in toxicity
21 | O=C(Nc1c(Cl)cc(C(F)(F)F)cc1Cl)C(F)(F)C(F)(F)F [GMR138, N-(2,6-dichloro-4-(trifluoromethyl)phenyl)-2,2,3,3,3-pentafluoropropanamide] | 0.8 | 90.00 | 120.00 | 57.6 | 100 | 0.3 | 66 | 1 h Repellency EC50, μg/cm^2 ([7]; 1 h): 5.3 μg/cm^2
22 | CC(=O)N(C(C)=O)c1cccc(OC(F)(F)F)c1 [GMR159] |  | ~1000 | >1000 |  | 19 |  | −26 | 
23 | C#C[C@@H]1[C@@H](C(=O)Nc2cc(F)cc(F)c2)C1(C)C [GMR180] |  |  |  |  | 14.3 |  | −24 | 
24 | CC(=O)Nc1c(Cl)cncc1Cl [GMR130] |  |  |  |  | 81 |  | 34 | 
25 | CN(C(=O)C(F)(F)C(F)(F)C(F)(F)F)c1cc(Cl)nc(Cl)c1 [GMR095] | 0.6 | 775.00 | 1300.00 | 1576 | 100 | 14 | 84 | 1 h Repellency EC50, μg/cm^2 ([7]; 1 h): 10 μg/cm^2
26 | O=C(Nc1cc(F)c(F)c(F)c1)C(F)(F)C(F)(F)OC(F)(F)F [GMR100] |  | >1000 | >1000 | 2374 |  | 15 |  | mortality at 10 µg/cm2 ([5]; read-out: 24 h % Mortality): 21%; 1 h Repellency EC50, μg/cm^2 ([7]; 1 h): 3 μg/cm^2; knockdown in 1 hr repellency test (XXkd) ([7]; screened at 10 μg/cm^2, 1 h, out of 16 females): 10
27 | CCCCCCCCCCC(=O)Nc1ccccc1C(F)(F)F [MTFI-2-1F] |  |  |  |  | 0 |  | 6 | 
28 | O=C(Nc1cc(Cl)nc(C(F)(F)F)c1)C(F)(F)C(F)(F)C(F)(F)C(F)(F)C(F)(F)F [GMR055] | 0.4 | 4.0 | 11.0 | 10.5 |  |  |  | Ae. aegypti RR (resistance ratio) [2]: 0.6; Ae. aegypti PR LD50 [2]: 5.90 ng/mg
